Data reported in patent publication US10561703B2, “Method of modulating sex hormone levels using a sex hormone secretion modulator” (GEMVAX & KAEL CO., LTD., priority 2013, dated 2020).

System: FSH
Experiment: FSH level in blood (serum CLIA) after repeated sc PEP-1
Type: in vivo, SD rats
Procedure: PEP-1 (peptide of SEQ ID NO: 1), lyophilized white powder, obtained according to the method mentioned in example 1 was dissolved in 0.9% of saline, considering the correction factor of PEP-1 (purity: 94.13%, content: 92.36%, correction factor: 1.15). 50 mg/mL stock solution was further diluted into 20 mg/mL, 2 mg/mL, and 1 mg/mL with 0.9% saline, and stored at 4° C. for a week until the use.
The purpose of this example is to confirm the change of sexual hormones in blood from SD rats with 7 days repeated daily administration of SEQ ID NO: 1 peptide, PEP-1. This experiment followed the Ethics Regulation of Animal Test by KAMSI Inc. (Korea Animal Medical Science Institute). In addition, this experiment, Non-GLP experiment, referred to the MFDS (Ministry of Food and Drug Safety) notification; Agent 2013-40 (5th April 2013), Principles of Good Laboratory Practice (1997).
SPF Rats (Crlj:CD(SD)) were purchased from ORIENTBio Inc. (Mokdong-ri, Buk-myeon, Gapyeong-gun, Gyeonggi-do, Republic of Korea). 75 male (6.5 weeks old and 190˜210 g) and 75 female (6.5 weeks old and 160˜180 g) rats were monitored for 4 days, and 64 of male and female rats (each) were selected for the experiment. Raising condition is as follows; 23±3° C. of temperature, […] of relative humidity, 10˜20 times/hr of number of air changes, 12 hours (8 a.m.˜8 p.m.) of lighting with 150˜300 Lux of intensity.
64 male and female […] (mentioned above) were divided into 8 groups. Administration regimen, for example, drugs, routes, dosages, and volumes were as follows:
The detailed administration regimen is as follows; once a day, twice a day and twice a week in each experimental group. Injection initiated at 10 a.m. every day, and each rat was injected at one minute intervals. Rats in Group 9, 10, 13 and 14 were injected twice a week. Administration of high dose test agent preceded that of low dose. The volume of injection was calculated using recently measured weight of rats, and it was 5 mL/kg. Subcutaneous injection was performed as follows; assistant tilted the back of rat upward, and experimenter sterilized the back of rat with 70% alcohol, followed by subcutaneous injection of test agent with 26 G syringe.
1.4 mL of blood sample (0.7 mL of serum) was collected after measurement of weight (Day 0). Next day (1 Day), 1.4 mL of blood sample (0.7 mL of serum) was collected twice after injection of test agent (4 hrs and 8 hrs after administration of test agent). For next 6 days (Day 2˜Day 7), 1.4 mL of blood was extracted once everyday (4 hours after injection of test agent). Dose and volume of test agent of each group followed the Table 3, and injection time zone was same every day. Blood was extracted from the jugular vein, and left at room temperature for 30 minutes. Serum was separated using centrifugation (10,000 rpm for 5 minutes), and stored at −70±5° C. in Deep freezer until the use. Blood extraction from each subject was done in the same time zone every day.
A CLIA (Chemi-Luminescence Immune Assay) Kit was used to analyze Testosterone, Estradiol E2, FSH (Follicle stimulating hormone), and LH (Luteinizing hormone). Analysis was completed within 48 hrs after blood extraction (Laboratory Medicine Department, Chung-Ang University Hospital), and detailed method is as follows; One-way ANOVA was used to verify the comparison between the vehicle and PEP-1, and between different doses of PEP-1. For further analysis, Duncan test was used as parametric test and Dunnett's test as non-parametric test. p<0.05 represents the statistical significance, and all statistical analysis was carried out with SPSS 10.1.
FSH was analyzed using the samples prepared from example 2. 100 μL of serum was used for analysis. Fundamentals of analysis is Two-site sandwich immunoassay based on direct chemi-luminescent. As mentioned in example 2, CLIA (Chemi-luminescence immune assay) Kit was used, following the manufacture's protocol.

EARPALLTSRLRFIPK (listed as Homo sapiens) [PEP-1, hormone secretion modulator / GnRH analog]
FSH level in blood (G3 Male 5 mg/kg sc 1/day x7, 7 days): 0.10 mIU/mL
FSH level in blood (G4 Female 5 mg/kg sc 1/day x7, 4 hr): 0.17 mIU/mL
FSH level in blood (G4 Female 5 mg/kg sc 1/day x7, 8 hr): 0.30 mIU/mL
FSH level in blood (G4 Female 5 mg/kg sc 1/day x7, 2 days): 0.32 mIU/mL
FSH level in blood (G4 Female 5 mg/kg sc 1/day x7, 3 days): 0.12 mIU/mL
FSH level in blood (G4 Female 5 mg/kg sc 1/day x7, 4 days): 0.17 mIU/mL
FSH level in blood (G4 Female 5 mg/kg sc 1/day x7, 5 days): 0.21 mIU/mL
FSH level in blood (G4 Female 5 mg/kg sc 1/day x7, 6 days): 0.13 mIU/mL
FSH level in blood (G4 Female 5 mg/kg sc 1/day x7, 7 days): 0.17 mIU/mL
FSH level in blood (G4 Female 5 mg/kg sc 1/day x7, pre): 0.20 mIU/mL
FSH level in blood (G6 Female 10 mg/kg sc 1/day x7, 4 hr): 0.31 mIU/mL
FSH level in blood (G6 Female 10 mg/kg sc 1/day x7, 8 hr): 0.48 mIU/mL
FSH level in blood (G6 Female 10 mg/kg sc 1/day x7, 2 days): 0.31 mIU/mL
FSH level in blood (G6 Female 10 mg/kg sc 1/day x7, 3 days): 0.20 mIU/mL
FSH level in blood (G6 Female 10 mg/kg sc 1/day x7, 4 days): 0.17 mIU/mL
FSH level in blood (G6 Female 10 mg/kg sc 1/day x7, 5 days): 0.19 mIU/mL
FSH level in blood (G6 Female 10 mg/kg sc 1/day x7, 6 days): 0.1 mIU/mL
FSH level in blood (G6 Female 10 mg/kg sc 1/day x7, 7 days): 0.16 mIU/mL
FSH level in blood (G6 Female 10 mg/kg sc 1/day x7, pre): 0.31 mIU/mL
FSH level in blood (G8 Female 10 mg/kg sc 2/day x4, 4 hr): 0.26 mIU/mL
FSH level in blood (G8 Female 10 mg/kg sc 2/day x4, 8 hr): 0.21 mIU/mL
FSH level in blood (G8 Female 10 mg/kg sc 2/day x4, 2 days): 0.28 mIU/mL
FSH level in blood (G8 Female 10 mg/kg sc 2/day x4, 3 days): 0.18 mIU/mL
FSH level in blood (G8 Female 10 mg/kg sc 2/day x4, 4 days): 0.13 mIU/mL
FSH level in blood (G8 Female 10 mg/kg sc 2/day x4, 5 days): 0.16 mIU/mL
FSH level in blood (G8 Female 10 mg/kg sc 2/day x4, 6 days): 0.15 mIU/mL
FSH level in blood (G8 Female 10 mg/kg sc 2/day x4, 7 days): 0.21 mIU/mL
FSH level in blood (G8 Female 10 mg/kg sc 2/day x4, pre): 0.26 mIU/mL
FSH level in blood (G9 Male 10 mg/kg sc 2/week x2 (days 1,7), 4 hr): 0.29 mIU/mL
FSH level in blood (G9 Male 10 mg/kg sc 2/week x2 (days 1,7), 8 hr): 0.28 mIU/mL
FSH level in blood (G9 Male 10 mg/kg sc 2/week x2 (days 1,7), 2 days): 0.22 mIU/mL
FSH level in blood (G9 Male 10 mg/kg sc 2/week x2 (days 1,7), 3 days): 0.17 mIU/mL
FSH level in blood (G9 Male 10 mg/kg sc 2/week x2 (days 1,7), 4 days): 0.37 mIU/mL
FSH level in blood (G9 Male 10 mg/kg sc 2/week x2 (days 1,7), 5 days): 0.25 mIU/mL
FSH level in blood (G9 Male 10 mg/kg sc 2/week x2 (days 1,7), 6 days): 0.14 mIU/mL
FSH level in blood (G9 Male 10 mg/kg sc 2/week x2 (days 1,7), 7 days): 0.15 mIU/mL
FSH level in blood (G9 Male 10 mg/kg sc 2/week x2 (days 1,7), pre): 0.28 mIU/mL
FSH level in blood (G10 Female 10 mg/kg sc 2/week x2 (days 1,7), 4 hr): 0.26 mIU/mL
FSH level in blood (G10 Female 10 mg/kg sc 2/week x2 (days 1,7), 8 hr): 0.44 mIU/mL
FSH level in blood (G10 Female 10 mg/kg sc 2/week x2 (days 1,7), 2 days): 0.37 mIU/mL
FSH level in blood (G10 Female 10 mg/kg sc 2/week x2 (days 1,7), 3 days): 0.21 mIU/mL
FSH level in blood (G10 Female 10 mg/kg sc 2/week x2 (days 1,7), 4 days): 0.18 mIU/mL
FSH level in blood (G10 Female 10 mg/kg sc 2/week x2 (days 1,7), 5 days): 0.32 mIU/mL
FSH level in blood (G10 Female 10 mg/kg sc 2/week x2 (days 1,7), 6 days): 0.23 mIU/mL
FSH level in blood (G10 Female 10 mg/kg sc 2/week x2 (days 1,7), 7 days): 0.28 mIU/mL
FSH level in blood (G10 Female 10 mg/kg sc 2/week x2 (days 1,7), pre): 0.31 mIU/mL
FSH level in blood (G11 Male 100 mg/kg sc 1/day x7, 4 hr): 0.27 mIU/mL
FSH level in blood (G11 Male 100 mg/kg sc 1/day x7, 8 hr): 0.36 mIU/mL
FSH level in blood (G11 Male 100 mg/kg sc 1/day x7, 2 days): 0.17 mIU/mL
FSH level in blood (G11 Male 100 mg/kg sc 1/day x7, 3 days): 0.14 mIU/mL
